# Experimental data reported in patent EP2271935B1, “METHOD AND KIT FOR THE EX VIVO EVALUATION OF THE RESPONSE OF A TUMOR TO CONDITIONS TO BE TESTED” (Universität Leipzig, priority 2008, dated 2009).
# Read-outs that look alike come from different tables or passages of the source.
# Tested on: epithelial cell line KB (DSMZ ACC 136)
# Assay: MTT assay of proliferation under varied riboflavin content and light exposure
# Type: cell-based, human
# Excerpt: To address this question, three media, a) the RPMI 1640 without riboflavin and phenol red that is used in the method according to the invention and was manufactured according to our specifications by Biochrom, as well as two different RPMI 1640 charges purchased from Invitrogen which were each containing 532 nmol/L riboflavin, b) a phenol red-free (Gibco 11835), and c) a conventional RPMI 1640 (Gibco 21875) with 13.284 µmol/L phenol red. All media were supplemented with 2 mmol/L L-alanyl-1-glutamine as stabilized glutamine source (Biochrom K0302 Lot 0755 S) and the same amount of 10% (v/v) of heat-inactivated fetal calf serum (FCS) that was purchased from Invitrogen (Lot 41Q7554K) with a yield of 198 nmol/L riboflavin. […] These medium concentrations define the riboflavin concentrations in controls (see below).
# In addition to the influences exerted by the different types of media alone, the riboflavin-dependent impact on the outcome of the docetaxel treatment was investigated. For this purpose 100 µl/well of docetaxel dilutions containing threefold the concentration indicated were added into the wells of microwell plates. The following seven docetaxel concentrations were tested: 19.38, 38.75, 77.5, 155, 310, 620, and 1,240 pmol/L.
# To examine photoactivation-dependent riboflavin-mediated effects disturbing the outcome of ex-vivo chemoresponse-evaluation by conventional cell culture medium, and in particular in the absence of flavin-protecting experimental conditions, varying amounts of riboflavin were added. A stock solution of 200 µM (-)-riboflavin (CAS 83-68-5, Sigma R9504, FW=376.37 g/mol, purity >99%, cell culture tested) in phosphate buffered saline was diluted to adjust in each case the highest final concentration in culture (this means: after completion of the assay by addition of the other two components to the final assay volume of 300 µL) to exactly 10 µmol/L. Serial log10-dilutions were made from this concentration in each corresponding medium. These gave final concentrations in cell culture of 10.000, 1.018, 0.12, and 0.03 µmol/L in the case of medium a) (the medium according to the method of the invention), and concentrations of 10.000, 1.449, 0.594, and 0.508 µmol/L using media b) and c).
# In general, each combination of riboflavin and docetaxel were tested in duplicate, and controls without additional riboflavin in quadruplicate for each experimental setting in the same 96-well plate. The experimental conditions were as follows: For each of the used media, two different plates were prepared simultaneously and either handled completely under flavin-protecting conditions (illumination only by sodium discharge lamps with an emission wavelength of 589 nm [i]), or in the same bench (Thermo MSC 12) with the installed light inside their working chamber switched on. The dilution of docetaxel and those of riboflavin in the particular medium were prepared for all four plates of each medium type prior to the other working steps under flavin-protecting conditions. Thus the administrations of these dilutions took about 20 min either under flavin-protecting conditions or illuminated conditions. After completed preparation of the plates that thereafter contained 200 µL of both diluted compounds, the plates were incubated 2 h in the incubator to allow for adjustment of the appropriate pH.
# In between the stock culture of KB was harvested by trypsination of a 3-days stock culture (exponential growth phase). Stock cultures of KB cells always were grown without any antibiotic or antimycotic in phenol red- and riboflavin-free RPMI 1640 supplemented with 10% (v/v) FCS and were adapted to this medium for more than five passages. They were always handled at room temperature or warmer and were never exposed to light other than the light of a sodium discharge lamp with an emission wavelength of 589 nm for at least five passages. […]
# [1] = medium a) (plate 01), 10 µmol/L riboflavin
smiles,measurement,setting,value
CC(=O)O[C@@]12CO[C@@H]1C[C@H](O)[C@@]1(C)C(=O)[C@H](O)C3=C(C)[C@@H](OC(=O)[C@H](O)[C@@H](NC(=O)OC(C)(C)C)c4ccccc4)C[C@@](O)([C@@H](OC(=O)c4ccccc4)[C@H]21)C3(C)C [docetaxel],IC50,"Homo sapiens, Epithelial cell, Plate No. 01; Riboflavin 10000 nmol/L; medium a), flavin-protecting conditions, read-out: IC50 for docetaxel normalized to medium control of medium with same riboflavin content",0.123 nM
same,IC50,"Homo sapiens, Epithelial cell, Plate No. 05; Riboflavin 499 nmol/L; medium b) phenol red-free RPMI 1640, flavin-protecting conditions, read-out: IC50 for docetaxel with reference to control with same riboflavin content",0.206 nM
same,IC50,"Homo sapiens, Epithelial cell, Plate No. 05; Riboflavin 499 nmol/L; medium b), flavin-protecting conditions, read-out: IC50 for docetaxel normalized to medium control of medium with same riboflavin content",0.1 nM
same,IC50,"Homo sapiens, Epithelial cell, Plate No. 05; Riboflavin 508 nmol/L; medium b) phenol red-free RPMI 1640, flavin-protecting conditions, read-out: IC50 for docetaxel with reference to control with same riboflavin content",0.182 nM
same,IC50,"Homo sapiens, Epithelial cell, Plate No. 05; Riboflavin 508 nmol/L; medium b), flavin-protecting conditions, read-out: IC50 for docetaxel normalized to medium control of medium with same riboflavin content",0.088 nM
same,IC50,"Homo sapiens, Epithelial cell, Plate No. 05; Riboflavin 594 nmol/L; medium b) phenol red-free RPMI 1640, flavin-protecting conditions, read-out: IC50 for docetaxel with reference to control with same riboflavin content",0.196 nM
same,IC50,"Homo sapiens, Epithelial cell, Plate No. 05; Riboflavin 594 nmol/L; medium b), flavin-protecting conditions, read-out: IC50 for docetaxel normalized to medium control of medium with same riboflavin content",0.0949 nM
same,IC50,"Homo sapiens, Epithelial cell, Plate No. 05; Riboflavin 1449 nmol/L; medium b) phenol red-free RPMI 1640, flavin-protecting conditions, read-out: IC50 for docetaxel with reference to control with same riboflavin content",0.197 nM
same,IC50,"Homo sapiens, Epithelial cell, Plate No. 05; Riboflavin 1449 nmol/L; medium b), flavin-protecting conditions, read-out: IC50 for docetaxel normalized to medium control of medium with same riboflavin content",0.0954 nM
same,IC50,"Homo sapiens, Epithelial cell, Plate No. 05; Riboflavin 10000 nmol/L; medium b) phenol red-free RPMI 1640, flavin-protecting conditions, read-out: IC50 for docetaxel with reference to control with same riboflavin content",0.238 nM
same,IC50,"Homo sapiens, Epithelial cell, Plate No. 05; Riboflavin 10000 nmol/L; medium b), flavin-protecting conditions, read-out: IC50 for docetaxel normalized to medium control of medium with same riboflavin content",0.115 nM
same,IC50,"Homo sapiens, Epithelial cell, Plate No. 09; Riboflavin 499 nmol/L; medium c) conventional RPMI 1640 with phenol red, flavin-protecting conditions, read-out: IC50 for docetaxel with reference to control with same riboflavin content",0.233 nM
same,IC50,"Homo sapiens, Epithelial cell, Plate No. 09; Riboflavin 499 nmol/L; medium c), flavin-protecting conditions, read-out: IC50 for docetaxel normalized to medium control of medium with same riboflavin content",0.1 nM
same,IC50,"Homo sapiens, Epithelial cell, Plate No. 09; Riboflavin 508 nmol/L; medium c) conventional RPMI 1640 with phenol red, flavin-protecting conditions, read-out: IC50 for docetaxel with reference to control with same riboflavin content",0.189 nM
same,IC50,"Homo sapiens, Epithelial cell, Plate No. 09; Riboflavin 508 nmol/L; medium c), flavin-protecting conditions, read-out: IC50 for docetaxel normalized to medium control of medium with same riboflavin content",0.0813 nM
same,IC50,"Homo sapiens, Epithelial cell, Plate No. 09; Riboflavin 594 nmol/L; medium c) conventional RPMI 1640 with phenol red, flavin-protecting conditions, read-out: IC50 for docetaxel with reference to control with same riboflavin content",0.201 nM
same,IC50,"Homo sapiens, Epithelial cell, Plate No. 09; Riboflavin 594 nmol/L; medium c), flavin-protecting conditions, read-out: IC50 for docetaxel normalized to medium control of medium with same riboflavin content",0.0865 nM
same,IC50,"Homo sapiens, Epithelial cell, Plate No. 09; Riboflavin 1449 nmol/L; medium c) conventional RPMI 1640 with phenol red, flavin-protecting conditions, read-out: IC50 for docetaxel with reference to control with same riboflavin content",0.284 nM
same,IC50,"Homo sapiens, Epithelial cell, Plate No. 09; Riboflavin 1449 nmol/L; medium c), flavin-protecting conditions, read-out: IC50 for docetaxel normalized to medium control of medium with same riboflavin content",0.122 nM
same,IC50,"Homo sapiens, Epithelial cell, Plate No. 09; Riboflavin 10000 nmol/L; medium c) conventional RPMI 1640 with phenol red, flavin-protecting conditions, read-out: IC50 for docetaxel with reference to control with same riboflavin content",0.394 nM
same,IC50,"Homo sapiens, Epithelial cell, Plate No. 09; Riboflavin 10000 nmol/L; medium c), flavin-protecting conditions, read-out: IC50 for docetaxel normalized to medium control of medium with same riboflavin content",0.169 nM
same,IC50,"Homo sapiens, Epithelial cell, medium a) (plate 01), 10 µmol/L riboflavin, flavin-protecting conditions, read-out: IC50 relating to medium control",0.224 nM
same,IC50,"Homo sapiens, Epithelial cell, medium a) (plate 01), 10 µmol/L riboflavin, flavin-protecting conditions, read-out: IC50 with reference to individual control",0.257 nM
same,IC50,"Homo sapiens, Epithelial cell, plates 01, 05, 09 handled completely under flavin-protecting conditions, three types of RPMI 1640, read-out: IC50 values for docetaxel",~0.2 nM
same,"IC50 as % of the IC50 at 20 nmol/L riboflavin, relating to medium control",[1],107%
same,"IC50 as % of the IC50 detected in a) at 20 nmol/L riboflavin, individual control",[1],128%
